In PMC6704710, “Preclinical evaluation of 3D185, a novel potent inhibitor of FGFR1/2/3 and CSF-1R, in FGFR-dependent and macrophage-dominant cancer models” (Journal of Experimental & Clinical Cancer Research : CR, 2019):

Experiments:
Test in all cases: Eurofins kinase panel
Format in all cases: biochemical
Settings in all cases: read-out: Inhibition rate (%)
BTK(h) = target: T1, BTK(h) (Homo sapiens, UniProt Q06187)
T1 construct: purchased Eurofins (KinaseProfiler)

CDK1/cyclinB(h) = target: T2, CDK1/cyclinB(h) (Homo sapiens, UniProt P06493)
T2 construct: purchased Eurofins (KinaseProfiler)

CK2(h) = target: T3, CK2(h) (Homo sapiens, UniProt P68400)
T3 construct: purchased Eurofins (KinaseProfiler)

EGFR(T790M)(h) = target: T4, EGFR(T790M)(h) (Homo sapiens, UniProt P00533, T790M)
T4 construct: purchased Eurofins (KinaseProfiler)
T4 sequence (P00533 25-1210 T790M): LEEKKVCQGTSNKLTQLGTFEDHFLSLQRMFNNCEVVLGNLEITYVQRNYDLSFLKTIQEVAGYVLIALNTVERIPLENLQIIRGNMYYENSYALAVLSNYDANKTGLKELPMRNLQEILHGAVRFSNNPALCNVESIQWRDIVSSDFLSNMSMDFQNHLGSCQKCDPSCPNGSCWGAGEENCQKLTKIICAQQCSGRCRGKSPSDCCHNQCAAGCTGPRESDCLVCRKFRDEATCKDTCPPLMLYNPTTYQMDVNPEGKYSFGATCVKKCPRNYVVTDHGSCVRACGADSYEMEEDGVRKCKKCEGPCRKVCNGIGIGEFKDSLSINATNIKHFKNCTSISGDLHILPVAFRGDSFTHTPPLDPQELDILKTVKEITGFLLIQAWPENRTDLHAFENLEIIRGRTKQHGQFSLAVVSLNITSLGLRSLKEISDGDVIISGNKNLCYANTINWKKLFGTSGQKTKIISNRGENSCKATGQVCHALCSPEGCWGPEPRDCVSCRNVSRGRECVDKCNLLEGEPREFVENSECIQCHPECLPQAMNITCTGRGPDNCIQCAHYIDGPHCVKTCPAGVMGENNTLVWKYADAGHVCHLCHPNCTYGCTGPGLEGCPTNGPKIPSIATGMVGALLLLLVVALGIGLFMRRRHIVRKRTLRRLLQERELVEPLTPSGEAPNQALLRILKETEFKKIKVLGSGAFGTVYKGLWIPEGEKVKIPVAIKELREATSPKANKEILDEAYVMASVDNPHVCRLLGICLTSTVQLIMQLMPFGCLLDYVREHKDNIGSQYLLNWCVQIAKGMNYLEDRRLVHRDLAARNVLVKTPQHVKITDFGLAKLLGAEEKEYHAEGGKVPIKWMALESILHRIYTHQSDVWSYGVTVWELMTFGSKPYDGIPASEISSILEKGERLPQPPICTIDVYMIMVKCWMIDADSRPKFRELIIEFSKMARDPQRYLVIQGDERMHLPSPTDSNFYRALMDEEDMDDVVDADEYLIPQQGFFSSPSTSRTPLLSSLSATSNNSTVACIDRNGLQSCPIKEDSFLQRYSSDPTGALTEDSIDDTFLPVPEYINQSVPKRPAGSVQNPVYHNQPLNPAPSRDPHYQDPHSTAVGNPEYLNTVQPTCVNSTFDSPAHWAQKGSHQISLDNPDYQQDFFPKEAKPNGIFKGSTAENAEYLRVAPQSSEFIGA

EphA5(h) = target: T5, EphA5(h) (Homo sapiens, UniProt P54756)
T5 construct: purchased Eurofins (KinaseProfiler)

MOK(h) = target: T6, MOK(h) (Homo sapiens, UniProt Q9UQ07)
T6 construct: purchased Eurofins (KinaseProfiler)
T6 sequence (Q9UQ07 1-419): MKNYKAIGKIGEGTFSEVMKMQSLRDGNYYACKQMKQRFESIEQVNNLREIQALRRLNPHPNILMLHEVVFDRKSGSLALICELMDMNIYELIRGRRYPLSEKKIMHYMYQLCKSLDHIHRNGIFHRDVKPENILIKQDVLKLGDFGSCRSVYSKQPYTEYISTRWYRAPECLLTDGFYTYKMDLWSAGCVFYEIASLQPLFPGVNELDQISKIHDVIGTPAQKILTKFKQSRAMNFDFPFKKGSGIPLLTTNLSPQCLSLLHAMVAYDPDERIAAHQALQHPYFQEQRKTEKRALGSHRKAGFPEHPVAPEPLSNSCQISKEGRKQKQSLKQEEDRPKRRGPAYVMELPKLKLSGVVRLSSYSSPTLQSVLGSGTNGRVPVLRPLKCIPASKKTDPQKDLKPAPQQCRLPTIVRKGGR

NEK4(h) = target: T7, NEK4(h) (Homo sapiens, UniProt P51957)
T7 construct: purchased Eurofins (KinaseProfiler)
T7 sequence (P51957 whole entry): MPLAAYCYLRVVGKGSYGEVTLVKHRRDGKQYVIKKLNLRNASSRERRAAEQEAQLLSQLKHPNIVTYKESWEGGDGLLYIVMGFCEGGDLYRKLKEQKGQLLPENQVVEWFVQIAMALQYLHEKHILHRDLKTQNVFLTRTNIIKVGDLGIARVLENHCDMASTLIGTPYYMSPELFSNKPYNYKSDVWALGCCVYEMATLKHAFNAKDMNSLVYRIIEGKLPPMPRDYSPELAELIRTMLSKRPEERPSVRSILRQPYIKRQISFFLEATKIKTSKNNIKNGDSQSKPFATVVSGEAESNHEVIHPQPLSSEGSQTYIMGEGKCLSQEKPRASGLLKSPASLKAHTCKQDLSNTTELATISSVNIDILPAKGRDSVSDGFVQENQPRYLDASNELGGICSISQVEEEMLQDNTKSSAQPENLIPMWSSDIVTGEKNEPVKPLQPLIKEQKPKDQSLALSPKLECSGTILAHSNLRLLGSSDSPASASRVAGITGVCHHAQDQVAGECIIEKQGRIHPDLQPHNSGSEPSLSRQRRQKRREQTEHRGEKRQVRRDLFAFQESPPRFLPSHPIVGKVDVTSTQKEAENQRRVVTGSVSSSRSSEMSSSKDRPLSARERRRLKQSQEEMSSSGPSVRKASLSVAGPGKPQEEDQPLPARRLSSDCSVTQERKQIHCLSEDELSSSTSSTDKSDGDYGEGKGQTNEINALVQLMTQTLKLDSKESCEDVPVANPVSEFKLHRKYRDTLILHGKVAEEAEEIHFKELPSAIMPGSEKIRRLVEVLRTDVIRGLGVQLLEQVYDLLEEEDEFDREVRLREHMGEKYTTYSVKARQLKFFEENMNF

PKG1β(h) = target: T8, PKG1β(h) (Homo sapiens, UniProt Q13976)
T8 construct: purchased Eurofins (KinaseProfiler)
T8 sequence (Q13976 1-686 isoform Q13976-2): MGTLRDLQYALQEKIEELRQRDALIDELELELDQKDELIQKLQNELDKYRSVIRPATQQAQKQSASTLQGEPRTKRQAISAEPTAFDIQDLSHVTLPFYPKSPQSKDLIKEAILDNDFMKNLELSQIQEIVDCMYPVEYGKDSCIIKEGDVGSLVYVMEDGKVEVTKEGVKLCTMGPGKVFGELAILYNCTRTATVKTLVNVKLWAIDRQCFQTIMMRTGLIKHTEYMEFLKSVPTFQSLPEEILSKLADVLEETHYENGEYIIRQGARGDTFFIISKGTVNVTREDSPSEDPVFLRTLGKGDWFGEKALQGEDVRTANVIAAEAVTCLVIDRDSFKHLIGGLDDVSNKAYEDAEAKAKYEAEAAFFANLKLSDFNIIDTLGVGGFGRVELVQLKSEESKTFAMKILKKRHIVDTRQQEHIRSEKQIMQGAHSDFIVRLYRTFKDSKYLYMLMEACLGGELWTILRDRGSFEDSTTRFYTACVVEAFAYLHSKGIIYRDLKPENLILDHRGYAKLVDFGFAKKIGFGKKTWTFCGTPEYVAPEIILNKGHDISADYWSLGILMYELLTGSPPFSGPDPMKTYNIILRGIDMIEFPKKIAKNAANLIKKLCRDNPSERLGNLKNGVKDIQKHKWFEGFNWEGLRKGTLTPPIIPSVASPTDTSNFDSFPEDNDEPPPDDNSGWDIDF

PRK1(h) = target: T9, PRK1(h) (Homo sapiens, UniProt Q16512)
T9 construct: purchased Eurofins (KinaseProfiler)
T9 sequence (Q16512 whole entry): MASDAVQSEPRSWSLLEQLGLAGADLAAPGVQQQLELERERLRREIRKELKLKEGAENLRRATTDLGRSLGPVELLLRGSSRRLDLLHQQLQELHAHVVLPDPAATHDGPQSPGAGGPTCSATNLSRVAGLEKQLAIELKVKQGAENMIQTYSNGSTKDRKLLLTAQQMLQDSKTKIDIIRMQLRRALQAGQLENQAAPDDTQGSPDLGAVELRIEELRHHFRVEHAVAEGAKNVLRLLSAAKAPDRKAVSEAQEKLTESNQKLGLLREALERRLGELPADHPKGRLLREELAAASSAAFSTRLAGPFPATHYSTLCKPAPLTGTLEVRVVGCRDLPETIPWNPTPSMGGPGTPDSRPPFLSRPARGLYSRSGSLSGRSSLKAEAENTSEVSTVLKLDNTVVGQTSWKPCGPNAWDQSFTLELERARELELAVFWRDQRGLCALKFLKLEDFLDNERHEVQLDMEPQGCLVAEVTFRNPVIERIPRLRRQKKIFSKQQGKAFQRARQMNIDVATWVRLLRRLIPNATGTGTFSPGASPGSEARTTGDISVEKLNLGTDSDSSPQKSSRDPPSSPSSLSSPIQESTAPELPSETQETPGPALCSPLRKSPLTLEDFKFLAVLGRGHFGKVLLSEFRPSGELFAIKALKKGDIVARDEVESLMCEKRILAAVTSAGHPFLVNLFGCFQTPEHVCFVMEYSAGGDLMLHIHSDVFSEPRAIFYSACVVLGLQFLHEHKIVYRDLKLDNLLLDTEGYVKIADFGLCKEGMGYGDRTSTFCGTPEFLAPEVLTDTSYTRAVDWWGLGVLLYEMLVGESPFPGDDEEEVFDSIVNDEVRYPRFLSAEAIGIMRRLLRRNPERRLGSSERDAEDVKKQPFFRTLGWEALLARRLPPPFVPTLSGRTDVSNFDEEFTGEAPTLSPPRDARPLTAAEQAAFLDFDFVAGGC

Ron(h) = target: T10, Ron(h) (Homo sapiens, UniProt Q04912)
T10 construct: purchased Eurofins (KinaseProfiler)
T10 sequence (Q04912 25-1400): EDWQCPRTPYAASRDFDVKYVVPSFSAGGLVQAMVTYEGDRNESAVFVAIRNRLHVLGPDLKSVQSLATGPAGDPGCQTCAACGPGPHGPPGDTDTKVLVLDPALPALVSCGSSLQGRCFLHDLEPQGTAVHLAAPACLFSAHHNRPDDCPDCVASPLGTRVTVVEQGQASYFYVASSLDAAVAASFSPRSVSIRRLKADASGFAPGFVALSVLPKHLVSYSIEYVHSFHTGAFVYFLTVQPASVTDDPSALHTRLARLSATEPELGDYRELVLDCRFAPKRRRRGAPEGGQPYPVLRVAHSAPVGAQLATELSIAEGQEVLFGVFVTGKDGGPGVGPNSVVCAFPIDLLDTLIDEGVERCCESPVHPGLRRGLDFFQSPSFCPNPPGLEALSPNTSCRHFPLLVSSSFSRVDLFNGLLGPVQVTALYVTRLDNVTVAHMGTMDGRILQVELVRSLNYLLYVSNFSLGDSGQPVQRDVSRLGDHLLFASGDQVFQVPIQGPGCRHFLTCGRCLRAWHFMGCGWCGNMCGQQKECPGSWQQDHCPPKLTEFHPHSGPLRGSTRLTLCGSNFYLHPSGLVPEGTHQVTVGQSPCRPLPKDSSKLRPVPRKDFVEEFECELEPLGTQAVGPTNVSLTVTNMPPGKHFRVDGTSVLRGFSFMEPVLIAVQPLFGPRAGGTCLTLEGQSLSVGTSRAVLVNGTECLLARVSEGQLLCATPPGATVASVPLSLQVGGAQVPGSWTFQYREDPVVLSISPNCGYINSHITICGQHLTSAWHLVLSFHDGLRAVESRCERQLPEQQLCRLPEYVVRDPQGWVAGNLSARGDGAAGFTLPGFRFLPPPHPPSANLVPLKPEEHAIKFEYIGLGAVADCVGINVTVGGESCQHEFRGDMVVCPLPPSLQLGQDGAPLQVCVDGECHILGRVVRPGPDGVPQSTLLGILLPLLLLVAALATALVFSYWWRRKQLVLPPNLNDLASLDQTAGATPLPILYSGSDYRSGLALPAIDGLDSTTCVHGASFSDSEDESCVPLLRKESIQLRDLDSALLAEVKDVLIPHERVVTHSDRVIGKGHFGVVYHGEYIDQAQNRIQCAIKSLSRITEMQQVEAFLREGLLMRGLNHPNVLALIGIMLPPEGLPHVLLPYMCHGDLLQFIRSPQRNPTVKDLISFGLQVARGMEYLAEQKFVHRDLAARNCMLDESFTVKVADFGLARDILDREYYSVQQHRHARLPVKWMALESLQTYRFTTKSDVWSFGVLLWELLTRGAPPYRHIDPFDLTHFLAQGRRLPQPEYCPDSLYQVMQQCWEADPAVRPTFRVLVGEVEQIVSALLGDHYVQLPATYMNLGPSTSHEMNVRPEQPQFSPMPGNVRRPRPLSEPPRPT

Rsk1(h) = target: T11, Rsk1(h) (Homo sapiens, UniProt Q15418)
T11 construct: purchased Eurofins (KinaseProfiler)

STK32C(h) = target: T12, STK32C(h) (Homo sapiens, UniProt Q86UX6)
T12 construct: purchased Eurofins (KinaseProfiler)

TAK1(h) = target: T13, TAK1(h) (Homo sapiens, UniProt O43318)
T13 construct: purchased Eurofins (KinaseProfiler)
T13 sequence (O43318 1-303 limits assumed): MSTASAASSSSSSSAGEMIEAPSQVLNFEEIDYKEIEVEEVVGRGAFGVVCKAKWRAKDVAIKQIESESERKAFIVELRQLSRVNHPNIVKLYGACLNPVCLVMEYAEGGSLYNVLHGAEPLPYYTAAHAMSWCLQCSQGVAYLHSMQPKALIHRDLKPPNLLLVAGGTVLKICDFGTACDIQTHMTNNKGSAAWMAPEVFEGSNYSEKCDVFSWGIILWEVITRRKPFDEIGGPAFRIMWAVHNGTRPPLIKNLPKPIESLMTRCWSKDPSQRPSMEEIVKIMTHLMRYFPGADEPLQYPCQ

Wee1B(h) = target: T14, Wee1B(h) (Homo sapiens, UniProt P0C1S8)
T14 construct: purchased Eurofins (KinaseProfiler)

T1 sequence (Q06187 whole entry): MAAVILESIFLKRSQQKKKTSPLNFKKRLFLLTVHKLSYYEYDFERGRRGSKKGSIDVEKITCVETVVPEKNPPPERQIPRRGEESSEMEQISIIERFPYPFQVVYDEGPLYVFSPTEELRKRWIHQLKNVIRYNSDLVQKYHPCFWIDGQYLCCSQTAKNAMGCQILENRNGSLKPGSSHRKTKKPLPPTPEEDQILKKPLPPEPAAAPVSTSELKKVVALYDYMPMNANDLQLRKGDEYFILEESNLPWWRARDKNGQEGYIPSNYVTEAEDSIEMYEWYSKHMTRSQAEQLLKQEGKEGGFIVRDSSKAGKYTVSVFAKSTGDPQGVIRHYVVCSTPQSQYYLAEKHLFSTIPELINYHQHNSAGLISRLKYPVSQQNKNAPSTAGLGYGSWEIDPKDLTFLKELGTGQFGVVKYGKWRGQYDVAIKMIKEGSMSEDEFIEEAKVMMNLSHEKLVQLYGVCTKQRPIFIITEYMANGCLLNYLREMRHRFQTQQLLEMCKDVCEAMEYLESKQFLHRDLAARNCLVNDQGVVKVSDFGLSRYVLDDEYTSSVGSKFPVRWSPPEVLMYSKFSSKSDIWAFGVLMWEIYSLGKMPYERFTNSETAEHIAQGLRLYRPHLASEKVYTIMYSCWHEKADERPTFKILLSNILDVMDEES

**Q.** COc1cc(OC)c(Cl)c(-c2ccc3c(NC(=O)c4ccc(N5CCNC(C)(C)C5)cc4)n[nH]c3n2)c1Cl [3D185] was tested. Which inhibition at 0.01 µM (BTK(h); 10 nM) did it give?
**A.** 11%

**Q.** And the inhibition at 0.1 µM (BTK(h); 100 nM)?
**A.** 39%

**Q.** And the inhibition at 1 µM (BTK(h); 1000 nM)?
**A.** 90%

**Q.** And the inhibition at 0.01 µM (CDK1/cyclinB(h); 10 nM)?
**A.** 0%

**Q.** And the inhibition at 0.1 µM (CDK1/cyclinB(h); 100 nM)?
**A.** 2%

**Q.** And the inhibition at 1 µM (CDK1/cyclinB(h); 1000 nM)?
**A.** -11%

**Q.** What about the inhibition at 0.01 µM (CK2(h); 10 nM) of the same compound?
**A.** 2%

**Q.** What about the inhibition at 0.1 µM (CK2(h); 100 nM) of the same compound?
**A.** 9%

**Q.** What about the inhibition at 1 µM (CK2(h); 1000 nM) of the same compound?
**A.** 9%

**Q.** What about the inhibition at 0.01 µM (EGFR(T790M)(h); 10 nM) of the same compound?
**A.** -15%

**Q.** What about the inhibition at 0.1 µM (EGFR(T790M)(h); 100 nM) of the same compound?
**A.** -8%

**Q.** What about the inhibition at 1 µM (EGFR(T790M)(h); 1000 nM) of the same compound?
**A.** 29%

**Q.** What about the inhibition at 0.01 µM (EphA5(h); 10 nM) of the same compound?
**A.** 11%

**Q.** And the inhibition at 0.1 µM (EphA5(h); 100 nM)?
**A.** 10%

**Q.** What about the inhibition at 1 µM (EphA5(h); 1000 nM) of the same compound?
**A.** 13%

**Q.** What about the inhibition at 0.01 µM (MOK(h); 10 nM) of the same compound?
**A.** -7%

**Q.** What about the inhibition at 0.1 µM (MOK(h); 100 nM) of the same compound?
**A.** 6%

**Q.** What about the inhibition at 1 µM (MOK(h); 1000 nM) of the same compound?
**A.** 1%

**Q.** And the inhibition at 0.01 µM (NEK4(h); 10 nM)?
**A.** 16%

**Q.** What about the inhibition at 0.1 µM (NEK4(h); 100 nM) of the same compound?
**A.** 15%

**Q.** And the inhibition at 1 µM (NEK4(h); 1000 nM)?
**A.** 74%

**Q.** What about the inhibition at 0.01 µM (PKG1β(h); 10 nM) of the same compound?
**A.** 12%

**Q.** And the inhibition at 0.1 µM (PKG1β(h); 100 nM)?
**A.** 1%

**Q.** What about the inhibition at 1 µM (PKG1β(h); 1000 nM) of the same compound?
**A.** 4%

**Q.** What about the inhibition at 0.01 µM (PRK1(h); 10 nM) of the same compound?
**A.** 2%

**Q.** And the inhibition at 0.1 µM (PRK1(h); 100 nM)?
**A.** 1%

**Q.** And the inhibition at 1 µM (PRK1(h); 1000 nM)?
**A.** 2%

**Q.** And the inhibition at 0.01 µM (Ron(h); 10 nM)?
**A.** -16%

**Q.** And the inhibition at 0.1 µM (Ron(h); 100 nM)?
**A.** -10%

**Q.** What about the inhibition at 1 µM (Ron(h); 1000 nM) of the same compound?
**A.** 28%

**Q.** What about the inhibition at 0.01 µM (Rsk1(h); 10 nM) of the same compound?
**A.** -1%

**Q.** And the inhibition at 0.1 µM (Rsk1(h); 100 nM)?
**A.** -4%

**Q.** What about the inhibition at 1 µM (Rsk1(h); 1000 nM) of the same compound?
**A.** 24%

**Q.** What about the inhibition at 0.01 µM (STK32C(h); 10 nM) of the same compound?
**A.** 11%

**Q.** And the inhibition at 0.1 µM (STK32C(h); 100 nM)?
**A.** 8%

**Q.** And the inhibition at 1 µM (STK32C(h); 1000 nM)?
**A.** 7%

**Q.** And the inhibition at 0.01 µM (TAK1(h); 10 nM)?
**A.** -6%

**Q.** What about the inhibition at 0.1 µM (TAK1(h); 100 nM) of the same compound?
**A.** 11%

**Q.** What about the inhibition at 1 µM (TAK1(h); 1000 nM) of the same compound?
**A.** 13%

**Q.** And the inhibition at 0.01 µM (Wee1B(h); 10 nM)?
**A.** 9%

**Q.** What about the inhibition at 0.1 µM (Wee1B(h); 100 nM) of the same compound?
**A.** -2%

**Q.** And the inhibition at 1 µM (Wee1B(h); 1000 nM)?
**A.** 9%
